The values that follow come from PubChem BioAssay AID2060492 (Molecular Pharmacology Branch, DTP, NCI, 2025).

The structures appear in SMILES notation. Several values for one entry are separate records, joined by “and”; a condition that tells them apart may be missing. Equal values may be shown once. A value given as a limit tells only on which side of the number the result lay.

One may read the viability, T/C as the ratio of treated to control. As a reminder, the IC50 is the concentration at which inhibition is half-maximal.

The assay has as its system 695427-040-R-J1-PDC complex spheroids, viability percent T/C. Put plainly: Anticancer human tumor 695427-040-R-J1-PDC patient-derived colon adenocarcinoma cell line growth inhibition [GQUAD]. The conditions noted are these: for viability, T/C: stronger effect = lower value. The source says:
DNA G-quadruplex Stabilizer Agents in Combinations in Complex Spheroids
A high-throughput screen of multi-cell type tumor spheroids was designed to identify active combinations of DNA G-quadruplex stabilizer agents and targeted small molecules. Complex spheroids include a stromal component modeled by human endothelial cells (HUVEC) and fibroblasts modeled by human mesenchymal stem cells (MSCs). The concentration ranges selected for each drug and investigational agent were based upon clinically achievable concentrations if the clinical Cmax of the agent was known.
Compounds. The drugs and investigational agents: pidnarulex (CX-5461; NSC782164), APTO-253 (NSC789042), BRACO-19 (NSC847499), peposertib (NSC802822), ceralasertib (NSC780249), elimusertib (NSC800525), camonsertib (NSC841442), AZD-1390 (NSC803789), olaparib (NSC753686), talazoparib (NSC767125), ART-558 (NSC835418), sotorasib (NSC818433), MRTX-1133 (NSC836407), SN-38 (NSC673596), topotecan (NSC609699), etoposide (NSC141540), doxorubicin (NSC123127), gemcitabine (NSC613327), 5-fluorouracil (NSC19893), paclitaxel (NSC125973), vemurafenib (NSC761431), panobinostat (NSC761190), R-306465 (JNJ-16241199; NSC773264), adavosertib (NSC754352), TP-3654 (NSC805149), carboplatin (NSC241240), KSQ-4279 (NSC840948), and staurosporine (NSC755774) were obtained from the National Cancer Institute (NCI) Developmental Therapeutics Program Chemical Repository (34). The FDA-approved anticancer drug set is available from the NCI Developmental Therapeutics Program. […] The stock solutions were prepared in dimethyl sulfoxide (DMSO, Sigma-Aldrich, St. Louis, MO, cat. D2650) at 800-fold the tested concentration and stored at -70 degrees C prior to their use. All drugs and investigational agents were tested over a range starting from a high concentration at or near the clinical Cmax and decreasing in half-log increments. If the clinical Cmax for an agent had not been determined, the highest concentration tested was 10 microM.
2.3 Cell Culture. All cells were maintained in an incubator at 37 degrees C and 5% CO2 with 95% humidity. The PDC lines were cultured according to standard operating procedures established by the NCI PDMR. All PDCs were thawed and cultured in Matrigel-coated flasks prepared with a working solution of 1X Ham's F-12 nutrient mix, without supplementation (Invitrogen, cat. 11765054), 100 U/mL penicillin-streptomycin (Invitrogen, cat. 15140122), and 2.5% Matrigel (Corning Inc., cat. 354248) for the first three passages. The 857933-349-R-J2-PDC line was cultured in 6C/Colon 1B media, which includes advanced DMEM/F-12 (Thermo Fisher Scientific, cat. 12634028), 10 mM HEPES (Thermo Fisher Scientific, cat. 15630080), 1X GlutaMAX supplement (Thermo Fisher Scientific, cat. 35050061), 0.1 mg/mL primocin (InvivoGen, cat. ant-pm-2), 10% defined fetal bovine serum, heat inactivated (HyClone Laboratories Inc., cat. SH30070.03HI), 50% L-WRN conditioned media (ATCC, cat. CRL-3276), 1.25 mM N-Acetyl-L-cysteine (Sigma-Aldrich, cat. A9165), 10 mM nicotinamide (Sigma-Aldrich, cat. N0636), 1X B-27 supplement (Thermo Fisher Scientific, cat. 17504044), 1X N-2 supplement (Thermo Fisher Scientific, cat. 17502048), 10 microM Y-27632 dihydrochloride (Tocris Bioscience, cat. 1254), and 50 ng/mL human EGF recombinant protein (Thermo Fisher Scientific, cat. PHG0311). The 485176-168-R4-J1-PDC line was cultured in Panc media, which includes all 6C/Colon 1B media components plus 100 ng/mL human FGF-10 (Thermo Fisher Scientific, cat. 100-26), 500 nM SB-431542 (Selleckchem, cat. S1067), and gastrin (Tocris, cat. 3006).
[…]
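Note: spheroids exposed to compounds for seven days before readout.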

For the compound `CC(=O)O[C@H]1C(=O)[C@@]2(C)[C@H]([C@H](OC(=O)c3ccccc3)[C@]3(O)C[C@H](OC(=O)[C@H](O)[C@@H](NC(=O)c4ccccc4)c4ccccc4)C(C)=C1C3(C)C)[C@]1(OC(C)=O)CO[C@@H]1C[C@@H]2O`, the viability, T/C by setting is: (compound 0.0316 µM) 92.5% and 97.5% and 84.8%; (compound 0.1 µM) 90.5% and 92.7% and 88.8%; (compound 0.316 µM) 72.9% and 89.3% and 82.4%.

`C=CC(=O)N1CCN(c2nc(=O)n(-c3c(C)ccnc3C(C)C)c3nc(-c4c(O)cccc4F)c(F)cc23)C(C)C1` (stereo not given): the viability, T/C (compound 0.0316 µM) was 97.2% and 103% and 104%; the viability, T/C (compound 0.1 µM) is 93.4% and 97.8% and 82.5%; the viability, T/C (compound 0.316 µM) was 103% and 101% and 102%; the viability, T/C (compound 1 µM) was 98.8% and 105% and 85.6%; the viability, T/C (compound 3.16 µM) was 92.6% and 110% and 68.9%; the viability, T/C (compound 10 µM) was 90.5% and 106% and 97.2%. Moreover, where the note is “curve of compound”, the IC50 is more than 10000 nM.

Take `Cn1ncnc1[C@H]1c2n[nH]c(=O)c3cc(F)cc(c23)N[C@@H]1c1ccc(F)cc1`: the viability, T/C reads like this: (compound 0.000999 µM) 93.3% and 88.5% and 90.8%; (compound 0.00316 µM) 80.2% and 90.7% and 85.4%; (compound 0.00999 µM) 88.3% and 95.7% and 109%; (compound 0.0316 µM) 108% and 98.7% and 87.9%; (compound 0.0999 µM) 99.3% and 102% and 82.7%; (compound 0.316 µM) 69.6% and 93.1% and 74.3%. Moreover, the IC50 (curve of compound) was more than 316 nM.

In the case of `CN(C)c1ccc(Nc2c3ccc(NC(=O)CCN4CCCC4)cc3nc3cc(NC(=O)CCN4CCCC4)ccc23)cc1`, the viability, T/C reads like this: (compound 0.0316 µM) 104% [middle of 12 runs]; (compound 0.1 µM) 102% [middle of 12 runs]; (compound 0.316 µM) 104% [middle of 12 runs]; (compound 1 µM) 99.1% [middle of 12 runs]; (compound 3.16 µM) 103% [middle of 12 runs]; (compound 10 µM) 92.2% [middle of 12 runs]. Besides, the IC50 (compound alone, run of 04/22/2024) was more than 10000 nM.

As for `CC1COCCN1c1cc(-c2ccnn2C)c2ccnc(-c3ccn[nH]3)c2n1` (stereo not given) + CN(C)c1ccc(Nc2c3ccc(NC(=O)CCN4CCCC4)cc3nc3cc(NC(=O)CCN4CCCC4)ccc23)cc1, the IC50 was determined as 1250 nM (curve of first compound, second compound 0.0316 µM); 1360 nM (curve of first compound, second compound 0.1 µM); 1240 nM (curve of first compound, second compound 0.316 µM); 942 nM (curve of first compound, second compound 1 µM); 749 nM (curve of first compound, second compound 3.16 µM); 454 nM (curve of first compound, second compound 10 µM). Moreover, the viability, T/C reads like this: (second compound 0.0316 µM, first compound 0.0316 µM) 95.2%; (second compound 0.0316 µM, first compound 0.1 µM) 78.8%; (second compound 0.0316 µM, first compound 0.316 µM) 63%; (second compound 0.0316 µM, first compound 1 µM) 51%; (second compound 0.0316 µM, first compound 3.16 µM) 44.9%; (second compound 0.0316 µM, first compound 10 µM) 39.4%. The viability, T/C was 100% (second compound 0.1 µM, first compound 0.0316 µM); 75.9% (second compound 0.1 µM, first compound 0.1 µM); 63.9% (second compound 0.1 µM, first compound 0.316 µM); 52% (second compound 0.1 µM, first compound 1 µM); 45.3% (second compound 0.1 µM, first compound 3.16 µM); 39.1% (second compound 0.1 µM, first compound 10 µM). Also, the viability, T/C (second compound 0.316 µM, first compound 0.0316 µM) is 87.7%; the viability, T/C (second compound 0.316 µM, first compound 0.1 µM) is 76.3%; the viability, T/C (second compound 0.316 µM, first compound 0.316 µM) is 56.3%; the viability, T/C (second compound 0.316 µM, first compound 1 µM) is 49.3%; the viability, T/C (second compound 0.316 µM, first compound 3.16 µM) was 46.8%; the viability, T/C (second compound 0.316 µM, first compound 10 µM) was 42.4%. Moreover, the viability, T/C (second compound 1 µM, first compound 0.0316 µM) was 96.7%; the viability, T/C (second compound 1 µM, first compound 0.1 µM) is 81.9%; the viability, T/C (second compound 1 µM, first compound 0.316 µM) was 60.3%; the viability, T/C (second compound 1 µM, first compound 1 µM) was 49.7%; the viability, T/C (second compound 1 µM, first compound 3.16 µM) was 45.9%; the viability, T/C (second compound 1 µM, first compound 10 µM) was 39.1%. Further, the viability, T/C is 89.3% (second compound 3.16 µM, first compound 0.0316 µM); 74.5% (second compound 3.16 µM, first compound 0.1 µM); 55.5% (second compound 3.16 µM, first compound 0.316 µM); 48.9% (second compound 3.16 µM, first compound 1 µM); 43.8% (second compound 3.16 µM, first compound 3.16 µM); 39.9% (second compound 3.16 µM, first compound 10 µM). For the same compound, the viability, T/C reads like this: (second compound 10 µM, first compound 0.0316 µM) 86%; (second compound 10 µM, first compound 0.1 µM) 66.1%; (second compound 10 µM, first compound 0.316 µM) 50.5%; (second compound 10 µM, first compound 1 µM) 46.8%; (second compound 10 µM, first compound 3.16 µM) 40.2%; (second compound 10 µM, first compound 10 µM) 37%.

As to `COc1cccc2c1C(=O)c1c(O)c3c(c(O)c1C2=O)CC(O)(C(=O)CO)CC3OC1CC(N)C(O)C(C)O1` (stereo not given), the viability, T/C is, setting by setting: (compound 0.0316 µM) 108% and 100% and 89.9%; (compound 0.1 µM) 88.7% and 92.9% and 92.4%; (compound 0.316 µM) 90.9% and 94.7% and 84.1%; (compound 1 µM) 90.9% and 89.8% and 68.8%; (compound 3.16 µM) 74.8% and 60.3% and 59%; (compound 10 µM) 44.5% and 47.9% and 43.7%. For the same compound, the half-maximal inhibitory concentration (IC50) (curve of compound) is 8210 nM and 8190 nM and 5940 nM.

For the compound `COc1ccc([C@@H](O)c2cc(-c3ncnc4cc(N5CCOCC5)ccc34)c(F)cc2Cl)nn1`, the viability, T/C is 91.1% and 96.7% and 94.1% (compound 0.0316 µM); 79.7% and 91.7% and 86.8% (compound 0.1 µM); 101% and 91.6% and 95.4% (compound 0.316 µM); 70.5% and 92% and 82.2% (compound 1 µM); 69% and 67.2% and 61% (compound 3.16 µM); 50.5% and 51% and 46% (compound 10 µM). For the same compound, the IC50 (curve of compound) is > 10000 nM and 7330 nM.
